Legend:
Assay in all cases: CTG-3D luminescence at 96 h relative to day-0 seeding control (ratio to day 0); higher = more growth / less cytotoxicity; PDxO 3D drug screen (set 2), 96 h, CTG-3D normalised to day-0 seeding control.
HCI-016 = system: HCI-016 (organoid from a triple-negative breast cancer xenograft)
HCI-005.E2 = system: HCI-005.E2 (organoid from a breast cancer xenograft with a HER2-positive history)
HCI-011.E2 = system: HCI-011.E2 (organoid from an ER-positive breast cancer xenograft)
HCI-010 = system: HCI-010 (organoid from a breast cancer xenograft)
HCI-017.E2 = system: HCI-017.E2 (organoid from an ER-positive breast cancer xenograft)
HCI-012 = system: HCI-012 (organoid from a breast cancer xenograft)

CO[C@H]1C[C@@H]2CC[C@@H](C)[C@@](O)(O2)C(=O)C(=O)N2CCCC[C@H]2C(=O)O[C@H]([C@H](C)C[C@@H]2CC[C@@H](O)[C@H](OC)C2)CC(=O)[C@H](C)/C=C(\C)[C@@H](O)[C@@H](OC)C(=O)[C@H](C)C[C@H](C)/C=C/C=C/C=C/1C [rapamycin]
CTG-3D luminescence at 96 h
Conditions	12.5 pM	0.00025 µM	0.005 µM	0.1 µM	1 µM	10 µM	100 µM	625 fM
HCI-010, days in culture: 79	1.09	1.02	1.11	1.13	0.996	0.98	0.00731	1.13
HCI-010, days in culture: 86	1.91	1.75	1.61	1.37	1.45	1.46	0.0226	2.35
HCI-010, days in culture: 102	0.91	0.799	0.831	0.806	0.875	0.636	0.00488	0.865
HCI-010, days in culture: 164	1.39	1.27	1.02	0.996	1.17	0.924	0.0097	1.26
HCI-011.E2, days in culture: 74	2.21	1.44	1.16	0.949	0.784	0.995	0.0116	2.1
HCI-012, days in culture: 214	2.2	1.93	1.66	1.12	1.43	1.48	0.0123	1.33
HCI-012, days in culture: 243	1.69	1.66	1.47	1.74	1.31	1.75	0.0176	1.93
HCI-012, days in culture: 256	2.19	1.95	1.54	1.81	1.91	1.19	0.0101	2.38
HCI-012, days in culture: 284	1.84	2.05	1.19	1.44	1.29	1.76	0.0121	3.62
HCI-016, days in culture: 305	1.79	1.77	1.74	4.51	1.66	1.4	0.0174	3.16
HCI-016, days in culture: 327	0.432	0.896	2.06	1.99	0.951	1.2	0.023	0.782
HCI-016, days in culture: 341	1.45	1.24	1.81	1.73	1.34	1.81	0.00758	1.9
HCI-016, days in culture: 397	1.84	1.69	1.26	1.35	1.52	1.39	0.0166	1.94
HCI-017.E2, days in culture: 85	2.2	1.67	1.47	1.51	1.34	1.31	0.0123	2.57

CTG-3D luminescence at 96 h
Conditions	12.5 pM	0.00025 µM	0.005 µM	0.1 µM	1 µM	10 µM	100 µM	625 fM
HCI-005.E2	1.21	1.28	1.46	1.72	1.73	1.49	0.0167	1.52
HCI-011.E2	0.71	0.7694	0.724	0.909	0.688	1.05	0.0136	1.05
HCI-017.E2	1.41	1.88	1.61	1.58	1.56	1.63	0.0217	1.583

CC(=O)O[C@@]12CO[C@@H]1C[C@H](O)[C@@]1(C)C(=O)[C@H](O)C3=C(C)[C@@H](OC(=O)[C@H](O)[C@@H](NC(=O)OC(C)(C)C)c4ccccc4)C[C@@](O)([C@@H](OC(=O)c4ccccc4)[C@H]21)C3(C)C [docetaxel]
CTG-3D luminescence at 96 h
Conditions	12.5 pM	0.00025 µM	0.005 µM	0.1 µM	1 µM	10 µM	100 µM	625 fM
HCI-010, days in culture: 79	1.26	1.41	1.14	0.967	0.815	0.987	0.000117	1.74
HCI-010, days in culture: 86	2.16	2.35	2.01	0.907	0.734	0.847	0.00279	2.24
HCI-010, days in culture: 102	1.2	0.987	0.747	0.491	0.519	0.375	0.00091	1.07
HCI-010, days in culture: 164	1.68	1.45	1.1	0.611	0.719	0.646	0.00438	1.43
HCI-011.E2, days in culture: 74	2.53	2.12	1.78	1.48	1.09	0.702	0.133	2.19
HCI-012, days in culture: 214	1.03	0.8	0.461	0.578	0.404	0.777	0.105	0.817
HCI-012, days in culture: 243	1.3	1.44	0.758	0.52	0.65	0.926	0.441	1.69
HCI-012, days in culture: 256	2.14	2.22	1.58	0.695	0.649	0.506	0.405	2.16
HCI-012, days in culture: 284	2.14	3.21	1.16	0.569	0.537	0.49	0.0331	4.21
HCI-016, days in culture: 305	1.51	1.9	1.03	1.42	0.985	0.955	0.0636	1.77
HCI-016, days in culture: 327	0.628	0.252	0.393	0.838	0.432	0.497	0.0762	0.906
HCI-016, days in culture: 341	1.18	1.18	0.786	0.962	0.862	0.954	0.11	1.59
HCI-016, days in culture: 397	1.74	1.18	0.667	0.792	0.484	0.997	0.19	2.27
HCI-017.E2, days in culture: 85	2.47	1.92	0.986	0.975	0.797	0.598	0.154	2.7

CTG-3D luminescence at 96 h
Conditions	12.5 pM	0.00025 µM	0.005 µM	0.1 µM	1 µM	10 µM	100 µM	625 fM
HCI-005.E2	1.75	1.98	2.07	2.26	2.22	1.75	0.813	2.5
HCI-011.E2	1.19	1.26	1.02	1.32	1.05	0.933	0.118	1.35
HCI-017.E2	1.34	1.47	1.2	1.36	1.14	0.78	0.13	1.38
